This experiment deals with T1, human IL-17AA (Homo sapiens, UniProt Q16552).
T1 construct: host or cells: HEK (human embryonic kidney) cells
T1 sequence (Q16552 24-155): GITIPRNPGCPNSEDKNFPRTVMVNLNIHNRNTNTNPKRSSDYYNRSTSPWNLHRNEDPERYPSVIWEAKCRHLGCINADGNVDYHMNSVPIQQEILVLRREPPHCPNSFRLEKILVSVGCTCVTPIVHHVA
Description: IL-8 release assay in human epithelial keratinocytes adult (HEKa). The format is cell-based. The conditions noted are these: HEKa cells, 3 ng/mL HEK-human IL-17AA + 10 ng/mL human TNFalpha; read-out: Rel EC50 IL-8 release assay. How it is done: Example 138: IL-8 Release Assay in Human Epithelial Keratinocytes Adult (HEKa)
Keratinocytes were seeded at 3500 cells/well in 384-well ViewPlates (Perkin Elmer) in Epilife medium (Thermo Fisher) containing human keratinocyte growth supplement (HKGS) without hydrocortisone and incubated in a humid incubator at 37° C. 5% CO2, overnight. The following day growth medium was removed and 25 μl fresh Epilife medium added. 75 nL test compound in 100% DMSO was added into each well reserved for test compounds, by the use of acoustic pipetting. The remaining wells received an equal volume of DMSO only, as vehicle control, or terfenadine in DMSO, as a positive control for any cytotoxic compounds. Subsequently, another 25 μL Epilife medium was added to each well. Finally, wells containing test compounds and wells prepared to yield maximum stimulation received […] of 9 ng/mL recombinant, human embryonic kidney cell (HEK)-derived human IL-17AA+30 ng/mL human TNF-alpha, in Epilife medium. Wells prepared to define 100% inhibition of IL-17 effects received 25 μL of 30 ng/mL human TNF-alpha alone, in Epilife medium. Final concentrations were 3 ng/mL HEK-human IL-17AA+10 ng/mL human TNFalpha (maximum stimulation) and 10 ng/mL human TNFalpha alone (100% inhibition, Emax), respectively. Cells were incubated for 68-72 hours in the incubator. IL-8 released from the cells was measured by the use of a commercial homogenous time-resolved fluorescence (HTRF) assay (CisBio). 2 μL cell culture supernatant was transferred to a 384-well Proxiplate. 5 μL HTRF reagent was added and the plates incubated sealed in the dark for 3-22 hours at room temperature. Time-resolved fluorescence was read at 665 vs 620 nm, with excitation at 320 nm, and IL-8 levels calculated as percent of controls. Reduction of the amount of secreted IL-8 indicates decreased IL-17 signaling. Concentration response curves were fitted by the use of a four-parameter logistic equation. Relative IC50 and Emax were reported from curves showing acceptable fit (r^2>0.9). Cytotoxicity was measured in the cell-containing Viewplates following addition of 7 μL PrestoBlue (Thermo Fisher) and incubation for 2.5-3 hours at room temperature, by measuring fluorescence at 615 nm (excitation at 535 nm). Fluorescence was directly proportional to the amount of metabolic activity. Reduction of fluorescence signal indicated cytotoxicity.
Compounds of the present invention were tested in the IL-8 release assay in human epithelial keratinocytes.
Compounds having a Relative EC50 of X; wherein X<100 nM; are indicated with *
Compounds having a Relative EC50 of X; wherein 100 nM<X<1000 nM; are indicated with **
Compounds having a Relative EC50 of X; wherein 1000 nM<X; are indicated with ***

Regarding `Cc1n[nH]c(C)c1-c1ccc(NC(=O)[C@@H](NC(=O)c2ccnn2C)C2CCC(F)(F)CC2)cc1` [Example 11, N-[(1S)-1-(4,4-difluorocyclohexyl)-2-[4-(3,5-dimethyl-1H-pyrazol-4-yl)anilino]-2-oxo-ethyl]-2-methyl-pyrazole-3-carboxamide], the concentration for a half-maximal effect (EC50) lay within 100 to 1000 nM. For `CCC(CC)[C@H](NC(=O)c1ccnn1C(C)C)C(=O)Nc1ccc(-c2c(C)n[nH]c2C)cc1` [Example 121], the EC50 lay within 100 to 1000 nM. The result for `CC(C)n1nccc1C(=O)NC(C(=O)Nc1ccc(-c2c(C3CC3)n[nH]c2C2CC2)cc1)C(C1CC1)C1CC1` (single isomer, unassigned) [Example 384, N-[1-(dicyclopropylmethyl)-2-[4-(3,5-dicyclopropyl-1H-pyrazol-4-yl)anilino]-2-oxo-ethyl]-2-isopropyl-pyrazole-3-carboxamide] reads 100 to 1000 nM; that for `CCc1nocc1C(=O)N[C@H](C(=O)Nc1ccc(-c2c(C)n[nH]c2C)cc1)C(C1CC1)C1CC1` [Example 290, N-[(1S)-1-(dicyclopropylmethyl)-2-[4-(3,5-dimethyl-1H-pyrazol-4-yl)anilino]-2-oxo-ethyl]-3-ethyl-isoxazole-4-carboxamide], less than 100 nM; that for `CCn1nccc1C(=O)N[C@H](C(=O)Nc1ccc(-c2c(C)n[nH]c2C)cc1)C1C2CC3CC(C2)CC1C3` (stereo partly drawn) [Example 201, N-[(1S)-1-(2-adamantyl)-2-[4-(3,5-dimethyl-1H-pyrazol-4-yl)anilino]-2-oxo-ethyl]-2-ethyl-pyrazole-3-carboxamide], less than 100 nM. The result for `Cc1n[nH]c(C)c1-c1ccc(NC(=O)C(NC(=O)c2ccnn2C)C(C2CC2)C2CC2)cc1` (stereo not drawn) [Example 30, N-[1-(dicyclopropylmethyl)-2-[4-(3,5-dimethyl-1 pyrazol-4-yl)anilino]-2-oxo-ethyl]-2-methyl-pyrazole-3-carboxamide] reads 100 to 1000 nM; that for `Cc1n[nH]c(C)c1-c1ccc(NC(=O)[C@@H](NC(=O)c2ccnn2C(C)C)[C@@H]2CC3(CC3)CCC2(F)F)cc1` [Example 181, N-[(1S)-1-[(7S)-6,6-difluorospiro[2.5]octan-7-yl]-2-[4-(3,5-dimethyl-1H-pyrazol-4-yl)anilino]-2-oxo-ethyl]-2-isopropyl-pyrazole-3-carboxamide], less than 100 nM. The result for `Cc1n[nH]c(C)c1-c1ccc(NC(=O)[C@@H](NC(=O)c2ccnn2C(C)C)C(C2CCC2)C2CCC2)cc1` [Example 39] reads less than 100 nM; that for `Cc1n[nH]c(C)c1-c1ccc(NC(=O)[C@@H](NC(=O)OC2CCC2)C(C2CC2)C2CC2)cc1` [Example 428, Cyclobutyl N-[(1S)-1-(dicyclopropylmethyl)-2-[4-(3,5-dimethyl-1H-pyrazol-4-yl)anilino]-2-oxo-ethyl]carbamate], less than 100 nM. Consider `Cc1n[nH]c(C)c1-c1ccc(NC(=O)C(NC(=O)c2ccnn2C)C2CCC3(CC2)CC3)cc1` (racemic) [Example 21, N-[2-[4-(3,5-dimethyl-1H-pyrazol-4-yl)anilino]-2-oxo-1-spiro[2.5]octan-6-yl-ethyl]-2-methyl-pyrazole-3-carboxamide], for which the EC50 is 100 to 1000 nM. The same measure for `Cn1cncc1-c1ccc(NC(=O)[C@@H](NC(=O)OC(C)(C)C)C(C2CCCCC2)C2CCCC2)cc1` (single isomer, unassigned) [Example 312]: more than 1000 nM; for `Cc1n[nH]c(C)c1-c1ccc(NC(=O)[C@@H](NC(=O)c2cnc3ccccn23)C2CCCCC2)cc1` [Example 293, N-[(1S)-1-cyclohexyl-2-[4-(3,5-dimethyl-1H-pyrazol-4-yl)anilino]-2-oxo-ethyl]imidazo[1,2-a]pyridine-3-carboxamide]: 100 to 1000 nM; for `CCn1nccc1C(=O)N[C@H](C(=O)Nc1ccc(-c2c(C)n[nH]c2C)cc1)C(C1CC1)C1CC1` [Example 107, N-[(1S)-1-(dicyclopropylmethyl)-2-[4-(3,5-dimethyl-1H-pyrazol-4-yl)anilino]-2-oxo-ethyl]-2-ethyl-pyrazole-3-carboxamide]: less than 100 nM. Turning to `Cc1n[nH]c(C)c1-c1ccc(NC(=O)[C@@H](NC(=O)c2ccnn2C(C)C)[C@H]2CCOc3c(F)cccc32)cc1` [Example 287, N-[(1S)-2-[4-(3,5-dimethyl-1H-pyrazol-4-yl)anilino]-1-[(4S)-8-fluorochroman-4-yl]-2-oxo-ethyl]-2-isopropyl-pyrazole-3-carboxamide], the EC50 is less than 100 nM. The result for `CCn1nccc1C(=O)N[C@H](C(=O)Nc1ccc(-c2c(C)n[nH]c2C)cc1)C(C)C1CCC1` (single isomer, unassigned) [Example 193] reads 100 to 1000 nM. Take `Cc1n[nH]c(C)c1-c1ccc(NC(=O)C(NC(=O)c2ccnn2C)C2CCCc3cc(F)ccc32)cc1` (single isomer, unassigned) [Example 259]: the half-maximal effective concentration (EC50) is more than 1000 nM.

With `Cc1n[nH]c(C)c1-c1ccc(NC(=O)[C@@H](NC(=O)c2ccnn2C)C2CCCCCC2)cc1` [Example 3, N-[(1S)-1-cycloheptyl-2-[4-(3,5-dimethyl-1H-pyrazol-4-yl)anilino]-2-oxo-ethyl]-2-methyl-pyrazole-3-carboxamide], the EC50 was less than 100 nM.

In the case of `CC(C)n1nccc1C(=O)N[C@H](C(=O)Nc1ccc(-c2ncn(C)c2C(F)(F)F)cc1)C1CCCCC1` [Example 371B, N-[(1S)-1-cyclohexyl-2-[4-[1-methyl-5-(trifluoromethyl)imidazol-4-yl]anilino]-2-oxo-ethyl]-2-isopropyl-pyrazole-3-carboxamide], the concentration giving a half-maximal response (EC50) was more than 1000 nM.

Regarding `CCn1nccc1C(=O)N[C@H](C(=O)Nc1ccc(-c2c(C3CC3)n[nH]c2C)cc1)C(C1CC1)C1CC1` [Example 392, N-[(1S)-2,2-dicyclopropyl-1-[[4-(3-cyclopropyl-5-methyl-1H-pyrazol-4-yl)phenyl]carbamoyl]ethyl]-2-ethyl-pyrazole-3-carboxamide], the concentration for a half-maximal effect (EC50) was less than 100 nM. Turning to `Cc1noc(C)c1-c1ccc(NC(=O)[C@@H](NC(=O)c2ccnn2C(C)C)C(C2CC2)C2CC2)cc1` [Example 360, N-[(1S)-1-(dicyclopropylmethyl)-2-[4-(3,5-dimethylisoxazol-4-yl)anilino]-2-oxo-ethyl]-2-isopropyl-pyrazole-3-carboxamide], the EC50 is less than 100 nM. The result for `Cc1ncn(C)c1-c1ccc(NC(=O)C(NC(=O)c2ccnn2C)C2CCC(F)(F)CC2)cc1` (single isomer, unassigned) [Example 334, N-[1-(4,4-difluorocyclohexyl)-2-[4-(3,5-dimethylimidazol-4-yl)anilino]-2-oxo-ethyl]-2-methyl-pyrazole-3-carboxamide] reads more than 1000 nM; that for `Cn1cncc1-c1ccc(NC(=O)[C@H](Cc2ccccc2)NC(=O)OC(C)(C)C)cc1` [Example 95, tert-butyl N-[(1S)-1-benzyl-2-[4-(3-methylimidazol-4-yl)anilino]-2-oxo-ethyl]carbamate], more than 1000 nM; that for `CC(C)C[C@H](NC(=O)OC(C)(C)C)C(=O)Nc1ccc(-c2cncn2C)cc1` [Example 96, tert-butyl N-[(1S)-3-methyl-1-[[4-(3-methylimidazol-4-yl)phenyl]carbamoyl]butyl] carbamate], more than 1000 nM. Take `Cc1n[nH]c(N)c1-c1ccc(NC(=O)[C@@H](NC(=O)c2ccnn2C)C2CCCCC2)cc1` [Example 449, N-[(1S)-2-[4-(3-Amino-5-methyl-1H-pyrazol-4-yl)anilino]-1-cyclohexyl-2-oxo-ethyl]-2-methyl-pyrazole-3-carboxamide]: the concentration for a half-maximal effect (EC50) was in the range of 100 to 1000 nM.
